{
  "source": "PubChem BioAssay AID2060623",
  "about": "(Molecular Pharmacology Branch, DTP, NCI, 2025)",
  "system": "227483-062-R1-J1-PDC complex spheroids with HUVEC/MSC, viability",
  "assay": "Anticancer human tumor 227483-062-R1-J1-PDC patient-derived pancreatic carcinoma cell line growth inhibition [CLK]",
  "conditions": "for IC50: curve of first compound; for viability, T/C: stronger effect = lower value",
  "how_it_was_run": "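Multi-cell-type spheroids combined patient-derived tumor cells with HUVEC endothelial cells and human mesenchymal stem cells. Paired agents were dosed in half-log steps down from about clinical Cmax, or from 10 microM where Cmax was unknown.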",
  "data": [
    {"molecule": "CC(C)CC(NC(=O)C(Cc1ccccc1)NC(=O)c1cnccn1)B(O)O", "note": "(centres undefined) + CN1CCN(c2cc(C(=O)Nc3cc4cc(-c5cnn(C)c5)ccc4cn3)ccn2)CC1;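 also: spheroids exposed to compounds for seven days before readout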;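 as to viability, T/C: percent of DMSO vehicle control luminescence as 100% viability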", "values": [
      {"measurement": "IC50", "setting": "second compound 0.0316 µM", "value": 1.54, "unit": "nM"},
      {"measurement": "IC50", "setting": "second compound 0.1 µM", "value": 1.02, "unit": "nM"},
      {"measurement": "IC50", "setting": "second compound 0.316 µM", "value": "< 0.949", "unit": "nM"},
      {"measurement": "IC50", "setting": "second compound 1 µM", "value": "< 0.949", "unit": "nM"},
      {"measurement": "IC50", "setting": "second compound 3.16 µM", "value": "< 0.949", "unit": "nM"},
      {"measurement": "IC50", "setting": "second compound 10 µM", "value": "< 0.949", "unit": "nM"},
      {"measurement": "viability, T/C", "setting": "second compound 0.0316 µM, first compound 0.000949 µM", "value": 84.2, "unit": "%"},
      {"measurement": "viability, T/C", "setting": "second compound 0.0316 µM, first compound 0.003 µM", "value": 2.58, "unit": "%"},
      {"measurement": "viability, T/C", "setting": "second compound 0.0316 µM, first compound 0.00949 µM", "value": 0.65, "unit": "%"},
      {"measurement": "viability, T/C", "setting": "second compound 0.0316 µM, first compound 0.03 µM", "value": 1.12, "unit": "%"},
      {"measurement": "viability, T/C", "setting": "second compound 0.0316 µM, first compound 0.0949 µM", "value": 0.45, "unit": "%"},
      {"measurement": "viability, T/C", "setting": "second compound 0.0316 µM, first compound 0.3 µM", "value": 0.74, "unit": "%"},
      {"measurement": "viability, T/C", "setting": "second compound 0.1 µM, first compound 0.000949 µM", "value": 53.2, "unit": "%"},
      {"measurement": "viability, T/C", "setting": "second compound 0.1 µM, first compound 0.003 µM", "value": 2.83, "unit": "%"},
      {"measurement": "viability, T/C", "setting": "second compound 0.1 µM, first compound 0.00949 µM", "value": 1.48, "unit": "%"},
      {"measurement": "viability, T/C", "setting": "second compound 0.1 µM, first compound 0.03 µM", "value": 5.65, "unit": "%"},
      {"measurement": "viability, T/C", "setting": "second compound 0.1 µM, first compound 0.0949 µM", "value": 0.4, "unit": "%"},
      {"measurement": "viability, T/C", "setting": "second compound 0.1 µM, first compound 0.3 µM", "value": 0.25, "unit": "%"},
      {"measurement": "viability, T/C", "setting": "second compound 0.316 µM, first compound 0.000949 µM", "value": 2.47, "unit": "%"},
      {"measurement": "viability, T/C", "setting": "second compound 0.316 µM, first compound 0.003 µM", "value": 3.26, "unit": "%"},
      {"measurement": "viability, T/C", "setting": "second compound 0.316 µM, first compound 0.00949 µM", "value": 0.59, "unit": "%"},
      {"measurement": "viability, T/C", "setting": "second compound 0.316 µM, first compound 0.03 µM", "value": 0.21, "unit": "%"},
      {"measurement": "viability, T/C", "setting": "second compound 0.316 µM, first compound 0.0949 µM", "value": 0.29, "unit": "%"},
      {"measurement": "viability, T/C", "setting": "second compound 0.316 µM, first compound 0.3 µM", "value": 0.75, "unit": "%"},
      {"measurement": "viability, T/C", "setting": "second compound 1 µM, first compound 0.000949 µM", "value": 3.27, "unit": "%"},
      {"measurement": "viability, T/C", "setting": "second compound 1 µM, first compound 0.003 µM", "value": 1.6, "unit": "%"},
      {"measurement": "viability, T/C", "setting": "second compound 1 µM, first compound 0.00949 µM", "value": 0.47, "unit": "%"},
      {"measurement": "viability, T/C", "setting": "second compound 1 µM, first compound 0.03 µM", "value": 2.61, "unit": "%"},
      {"measurement": "viability, T/C", "setting": "second compound 1 µM, first compound 0.0949 µM", "value": 0.34, "unit": "%"},
      {"measurement": "viability, T/C", "setting": "second compound 1 µM, first compound 0.3 µM", "value": 0.4, "unit": "%"},
      {"measurement": "viability, T/C", "setting": "second compound 3.16 µM, first compound 0.000949 µM", "value": 5.84, "unit": "%"},
      {"measurement": "viability, T/C", "setting": "second compound 3.16 µM, first compound 0.003 µM", "value": 2.27, "unit": "%"},
      {"measurement": "viability, T/C", "setting": "second compound 3.16 µM, first compound 0.00949 µM", "value": 1.43, "unit": "%"},
      {"measurement": "viability, T/C", "setting": "second compound 3.16 µM, first compound 0.03 µM", "value": 0.39, "unit": "%"},
      {"measurement": "viability, T/C", "setting": "second compound 3.16 µM, first compound 0.0949 µM", "value": 0.63, "unit": "%"},
      {"measurement": "viability, T/C", "setting": "second compound 3.16 µM, first compound 0.3 µM", "value": 1.73, "unit": "%"},
      {"measurement": "viability, T/C", "setting": "second compound 10 µM, first compound 0.000949 µM", "value": 3.7, "unit": "%"},
      {"measurement": "viability, T/C", "setting": "second compound 10 µM, first compound 0.003 µM", "value": 1.18, "unit": "%"},
      {"measurement": "viability, T/C", "setting": "second compound 10 µM, first compound 0.00949 µM", "value": 0.37, "unit": "%"},
      {"measurement": "viability, T/C", "setting": "second compound 10 µM, first compound 0.03 µM", "value": 1, "unit": "%"},
      {"measurement": "viability, T/C", "setting": "second compound 10 µM, first compound 0.0949 µM", "value": 0.3, "unit": "%"},
      {"measurement": "viability, T/C", "setting": "second compound 10 µM, first compound 0.3 µM", "value": 0.21, "unit": "%"}
    ]},
    {"molecule": "Cn1ncnc1[C@H]1c2n[nH]c(=O)c3cc(F)cc(c23)N[C@@H]1c1ccc(F)cc1", "note": "+ CNC(=O)c1ccc(Nc2nc(OC3CCCC3)c3c(-c4ccc5nc(C)oc5c4)c[nH]c3n2)c(OC)c1", "values": [
      {"measurement": "IC50", "setting": "second compound 0.0316 µM", "value": "> 100", "unit": "nM"},
      {"measurement": "IC50", "setting": "second compound 0.1 µM", "value": "> 100", "unit": "nM"},
      {"measurement": "IC50", "setting": "second compound 0.316 µM", "value": "> 100", "unit": "nM"},
      {"measurement": "IC50", "setting": "second compound 1 µM", "value": "> 100", "unit": "nM"},
      {"measurement": "IC50", "setting": "second compound 3.16 µM", "value": "< 0.316", "unit": "nM"},
      {"measurement": "IC50", "setting": "second compound 10 µM", "value": "< 0.316", "unit": "nM"},
      {"measurement": "viability, T/C", "setting": "second compound 0.0316 µM, first compound 0.000316 µM", "value": 87.5, "unit": "%"},
      {"measurement": "viability, T/C", "setting": "second compound 0.0316 µM, first compound 0.001 µM", "value": 111, "unit": "%"},
      {"measurement": "viability, T/C", "setting": "second compound 0.0316 µM, first compound 0.00316 µM", "value": 118, "unit": "%"},
      {"measurement": "viability, T/C", "setting": "second compound 0.0316 µM, first compound 0.01 µM", "value": 100, "unit": "%"},
      {"measurement": "viability, T/C", "setting": "second compound 0.0316 µM, first compound 0.0316 µM", "value": 89.1, "unit": "%"},
      {"measurement": "viability, T/C", "setting": "second compound 0.0316 µM, first compound 0.1 µM", "value": 97.1, "unit": "%"},
      {"measurement": "viability, T/C", "setting": "second compound 0.1 µM, first compound 0.000316 µM", "value": 111, "unit": "%"},
      {"measurement": "viability, T/C", "setting": "second compound 0.1 µM, first compound 0.001 µM", "value": 120, "unit": "%"},
      {"measurement": "viability, T/C", "setting": "second compound 0.1 µM, first compound 0.00316 µM", "value": 106, "unit": "%"},
      {"measurement": "viability, T/C", "setting": "second compound 0.1 µM, first compound 0.01 µM", "value": 97.4, "unit": "%"},
      {"measurement": "viability, T/C", "setting": "second compound 0.1 µM, first compound 0.0316 µM", "value": 97, "unit": "%"},
      {"measurement": "viability, T/C", "setting": "second compound 0.1 µM, first compound 0.1 µM", "value": 109, "unit": "%"},
      {"measurement": "viability, T/C", "setting": "second compound 0.316 µM, first compound 0.000316 µM", "value": 105, "unit": "%"},
      {"measurement": "viability, T/C", "setting": "second compound 0.316 µM, first compound 0.001 µM", "value": 84.2, "unit": "%"},
      {"measurement": "viability, T/C", "setting": "second compound 0.316 µM, first compound 0.00316 µM", "value": 78.5, "unit": "%"},
      {"measurement": "viability, T/C", "setting": "second compound 0.316 µM, first compound 0.01 µM", "value": 94.4, "unit": "%"},
      {"measurement": "viability, T/C", "setting": "second compound 0.316 µM, first compound 0.0316 µM", "value": 94.4, "unit": "%"},
      {"measurement": "viability, T/C", "setting": "second compound 0.316 µM, first compound 0.1 µM", "value": 70.4, "unit": "%"},
      {"measurement": "viability, T/C", "setting": "second compound 1 µM, first compound 0.000316 µM", "value": 69, "unit": "%"},
      {"measurement": "viability, T/C", "setting": "second compound 1 µM, first compound 0.001 µM", "value": 59.7, "unit": "%"},
      {"measurement": "viability, T/C", "setting": "second compound 1 µM, first compound 0.00316 µM", "value": 59.8, "unit": "%"},
      {"measurement": "viability, T/C", "setting": "second compound 1 µM, first compound 0.01 µM", "value": 67.4, "unit": "%"},
      {"measurement": "viability, T/C", "setting": "second compound 1 µM, first compound 0.0316 µM", "value": 71.9, "unit": "%"},
      {"measurement": "viability, T/C", "setting": "second compound 1 µM, first compound 0.1 µM", "value": 58, "unit": "%"},
      {"measurement": "viability, T/C", "setting": "second compound 3.16 µM, first compound 0.000316 µM", "value": 40.7, "unit": "%"},
      {"measurement": "viability, T/C", "setting": "second compound 3.16 µM, first compound 0.001 µM", "value": 44.9, "unit": "%"},
      {"measurement": "viability, T/C", "setting": "second compound 3.16 µM, first compound 0.00316 µM", "value": 51.2, "unit": "%"},
      {"measurement": "viability, T/C", "setting": "second compound 3.16 µM, first compound 0.01 µM", "value": 48.5, "unit": "%"},
      {"measurement": "viability, T/C", "setting": "second compound 3.16 µM, first compound 0.0316 µM", "value": 49.4, "unit": "%"},
      {"measurement": "viability, T/C", "setting": "second compound 3.16 µM, first compound 0.1 µM", "value": 41.3, "unit": "%"},
      {"measurement": "viability, T/C", "setting": "second compound 10 µM, first compound 0.000316 µM", "value": 40.5, "unit": "%"},
      {"measurement": "viability, T/C", "setting": "second compound 10 µM, first compound 0.001 µM", "value": 39.3, "unit": "%"},
      {"measurement": "viability, T/C", "setting": "second compound 10 µM, first compound 0.00316 µM", "value": 36.5, "unit": "%"},
      {"measurement": "viability, T/C", "setting": "second compound 10 µM, first compound 0.01 µM", "value": 34.2, "unit": "%"},
      {"measurement": "viability, T/C", "setting": "second compound 10 µM, first compound 0.0316 µM", "value": 41, "unit": "%"},
      {"measurement": "viability, T/C", "setting": "second compound 10 µM, first compound 0.1 µM", "value": 29.3, "unit": "%"}
    ]}
  ]
}
